Here are results for eight compounds from patent publication US20130129675A1, “INTERFERON THERAPIES IN COMBINATION WITH BLOCKADE OF STAT3 ACTIVATION” (BOARD OF REGENTS, THE UNIVERSITY OF TEXAS SYSTEM, priority 2009, published 2013).

Read-outs that look alike come from different tables or passages of the source. A value given as a limit tells only on which side of the number the result lay.

Series [1] deals with malignant glioma xenografts (U-87 and U-373). The note with it: cited from earlier work.
Series [2] relates to CD4+CD25+ T cells (natural Tregs). Briefly: FoxP3 expression in natural Tregs (nTreg). Type of series: cell-based, C57BL/6J mice. The note with it: 0, 0.1 and 1.0 μM, 96 hours, flow cytometry (FIG. 2). As to the method:
(§1) The blockade of activation of STAT3 and its subsequent nuclear translocation inhibits both tumorigenesis and tumor-mediated immunosuppression. […] CD4^+CD25^−CD62L^hi naïve T cells from C57BL/6J mice were stimulated by plate-bound anti-CD3 (2 μg/ml) and soluble anti-CD28 (2 μg/ml) in the presence of TGF-β1 (1 ng/ml) and hIL-2 (200 U/ml), with 0, 0.1, and 1.0 μM WP1066 for inducible Tregs (iTreg) differentiation. CD4^+CD25^+ T cells (natural Tregs, nTreg) were stimulated by plate-bound anti-CD3 (2 μg/ml) and soluble anti-CD28 (2 μg/ml) in the presence of hIL-2 (200 U/ml), with 0, 0.1, and 1.0 μM WP1066. Ninety-six hours after stimulation, the cells were analyzed for intracellular FoxP3 expression by flow cytometry. The percentage of FoxP3 expressing T cells is shown.
(§2) In additional experiments, CD4^+CD25^−CD62L^hi naïve T cells from C57BL/6J mice were stimulated by plate-bound anti-CD3 (2 μg/ml) and soluble anti-CD28 (2 μg/ml) in the presence of TGF-β1 (1 ng/ml) and hIL-2 (200 U/ml), with 0, 0.1, and 1.0 μM WP1066 for inducible Tregs (iTreg) differentiation. CD4^+CD25^+ T cells (natural Tregs, nTreg) were stimulated by plate-bound anti-CD3 (2 μg/ml) and soluble anti-CD28 (2 μg/ml) in the presence of hIL-2 (200 U/ml), with 0, 0.1, and 1.0 μM WP1066. Ninety-six hours after stimulation, the cells were analyzed for intracellular FoxP3 expression by flow cytometry.
Background: A flow cytometer gives signals particle by particle.

Series [3] concerns CD4+CD25−CD62Lhi naïve T cells. In words: FoxP3 induction during inducible Treg (iTreg) differentiation. The note with it: 0, 0.1 and 1.0 μM, 96 hours, flow cytometry (FIG. 2). Type of series: cell-based, C57BL/6J mice. As to the method: as §1, §2
Series [4] relates to head and neck carcinoma (MDA1986), pancreatic cancer (MiaPaca2), bladder cancer, glioma (U-87), lymphoma, myeloma, leukemia. The following applies: 40 mg/kg intraperitoneally every other day for 28 days; cited from earlier work.
A short description of series [5]: Toxicology of p-STAT3 inhibitors in mice (histology of systemic organs, Luxol fast blue staining of CNS axis). Type of series: in vivo, C57BL/6J mice. The following applies: for histological examination of the systemic organs: treated mice. From the text: The toxicological properties of the small molecule inhibitors of p-STAT3 appear favorable. […] Because p-STAT3 blockade agents are potent immune activators, nonspecific immune reactivity in the CNS remains a consideration. […] Fujita M, Zhu X, Sasaki K, et al., Inhibition Of STAT3 Promotes The Efficacy Of Adoptive Transfer Therapy Using Type-1 CTLs By Modulation Of The Immunological Microenvironment In A Murine Intracranial Glioma, J Immunol 2008; 180:2089-2098. This lack of induced autoimmunity may be due to STAT3's role as the key regulator of the generation of Th17 cells, which are primary immune cell mediators of autoimmunity. Thus, the inhibitors of p-STAT3 may also be inhibiting the mediators of CNS autoimmunity-Th 17 responses.

The subject of series [6] is human melanoma xenografts and syngeneic murine melanoma. In words: WP1066 in melanoma xenografts and syngeneic melanoma. Type of series: in vivo. The following applies: oral gavage. Here is the method: (§3) Iwamaru A, Szymanski S, Iwado E, et al., A Novel Inhibitor Of The STAT3 Pathway Induces Apoptosis In Malignant Glioma Cells Both In Vitro And In Vivo. Oncogene 2006; 26: 2435-2444. […] To determine whether treatment with WP1066 is efficacious against established syngeneic intracerebral tumors, C57BL/6J mice with melanoma tumors (B16) were treated by oral gavage with WP1066 starting on day 3 after tumor implantation. […] Kong L Y, Abou-Ghazal M K, Wei J, et al., A Novel Inhibitor Of STAT3 Activation Is Efficacious Against Established Central Nervous System Melanoma And Inhibits Regulatory T Cells, Clin Cancer Res (Submitted).

In the next series the test system is melanoma tumors (B16). Briefly: WP1066 against established syngeneic intracerebral tumors. Type of series: in vivo, C57BL/6J mice. Here is the method:
as §3
Fujita M, Zhu X, Sasaki K, et al., Inhibition Of STAT3 Promotes The Efficacy Of Adoptive Transfer Therapy Using Type-1 CTLs By Modulation Of The Immunological Microenvironment In A Murine Intracranial Glioma, J Immunol 2008; 180:2089-2098. […] Furthermore, when JSI-124 was combined with adoptive transfer of type I cytotoxic T lymphocytes, survival was further enhanced compared with treatment with either modality alone. The authors concluded that the inhibition of STAT3 could reverse the immune-suppressive immune microenvironment and promote the efficacy of adoptive transfer therapy. Id.

On the set-up of series [7]: species or system CD1 mice. The following applies: in vivo; for mean peak plasma concentration: CD1, mouse, iv. As to the method: Of central importance to the treatment of CNS gliomas and metastasis is the use of agents with sufficient CNS permeability and subsequent cytotoxic activity, of which there is direct evidence for WP1066 and indirect evidence for JSI-124. To determine the physiological doses of WP1066 that can be achieved in vivo, CD1 mice were given WP1066 as an intravenous bolus (10 or 40 mg/kg) or by oral gavage (40 mg/kg) and killed at various time points up to 24 hours after treatment. […] When WP1066 was delivered intraperitoneally at a dose of 100 mg/kg or intravenously at a dose of 10 mg/kg every other day for up to 2 weeks, plasma concentrations exceeded 1 μM, and CNS concentrations (with an intact blood-brain barrier) exceeded 62 μg/g of tissue (0.185 μM); concentrations in U87-MG malignant glioma-bearing animals exceeded 362 μg/g (1.08 μM). […] Fujita M, Zhu X, Sasaki K, et al., Inhibition Of STAT3 Promotes The Efficacy Of Adoptive Transfer Therapy Using Type-1 CTLs By Modulation Of The Immunological Microenvironment In A Murine Intracranial Glioma, J Immunol 2008; 180:2089-2098.

Series [8] deals with microglia, systemic APCs and T cells from patients with cancer. Briefly: WP1066 on immune cells obtained from patients with cancer. Type of series: cell-based. From the text: We recently have shown that blocking STAT3 activity by treatment with WP1066 in microglia obtained from the CNS of patients with cancer upregulates co-stimulatory molecules (e.g., CD80, CD86). The expression of co-stimulatory molecules is necessary for T-cell proliferation, and if a T cell encounters APCs, such as microglia/microphages, without co-stimulatory molecules present, the T cells will be rendered anergic. […] Of note, this potent immune activation occurred in immune cells obtained from patients with disease refractory to other conventional immune activators, such as toll-like receptor agonists.

The subject of series [9] is human lung cancer xenografts. The note with it: cited from earlier work.
The test system of series [10] is STAT3 in HaCaT keratinocytes. In words: pSTAT3 level in HaCaT keratinocytes (MSD chemiluminescent detection). The following applies: for Relative level of pSAT3: HaCaT cells, stimuli for 30 minutes. Type of series: cell-based, human. Here is the method:
Prior to experiments, the DMEM medium was changed to KGM-SFM containing rEGF and bovine pituitary extract for 12 hours, and the cells then exposed to various stimuli for 30 minutes. Cell lysates were extracted in IP lysis buffer were diluted in MSD extraction buffer and 25 uL of the cell lysate containing 10 ug protein was used in the analysis via chemiluminescent detection (MSD Technology). To test for inhibition by WP1220 (WP), cells were pre-incubated with WP1220 prior to the addition of IFN α.

The subject of series [11] is human breast carcinoma and syngeneic murine melanoma. The following applies: not in carcinomas that lack constitutive expression of p-STAT3; cited from earlier work.
Series [12] concerns lymphoma and cervical cancer. The following applies: cited from earlier work.
Another series has as its system intracerebral tumors. The note with it: mouse, in vivo; cited from earlier work.
For series [13] the following is noted: animals treated with JSI-124 (Fujita et al.); cited from earlier work.
Series [14] concerns breast carcinoma cell lines with constitutively active STAT3. The following applies: cited from earlier work.
Series [15] concerns human breast tumor xenografts. The following applies: cited from earlier work.
A further series addresses STAT3 (Homo sapiens, UniProt P40763). The following applies: in vitro; cited from earlier work.

STAT3, sequence (P40763 whole entry, species assumed): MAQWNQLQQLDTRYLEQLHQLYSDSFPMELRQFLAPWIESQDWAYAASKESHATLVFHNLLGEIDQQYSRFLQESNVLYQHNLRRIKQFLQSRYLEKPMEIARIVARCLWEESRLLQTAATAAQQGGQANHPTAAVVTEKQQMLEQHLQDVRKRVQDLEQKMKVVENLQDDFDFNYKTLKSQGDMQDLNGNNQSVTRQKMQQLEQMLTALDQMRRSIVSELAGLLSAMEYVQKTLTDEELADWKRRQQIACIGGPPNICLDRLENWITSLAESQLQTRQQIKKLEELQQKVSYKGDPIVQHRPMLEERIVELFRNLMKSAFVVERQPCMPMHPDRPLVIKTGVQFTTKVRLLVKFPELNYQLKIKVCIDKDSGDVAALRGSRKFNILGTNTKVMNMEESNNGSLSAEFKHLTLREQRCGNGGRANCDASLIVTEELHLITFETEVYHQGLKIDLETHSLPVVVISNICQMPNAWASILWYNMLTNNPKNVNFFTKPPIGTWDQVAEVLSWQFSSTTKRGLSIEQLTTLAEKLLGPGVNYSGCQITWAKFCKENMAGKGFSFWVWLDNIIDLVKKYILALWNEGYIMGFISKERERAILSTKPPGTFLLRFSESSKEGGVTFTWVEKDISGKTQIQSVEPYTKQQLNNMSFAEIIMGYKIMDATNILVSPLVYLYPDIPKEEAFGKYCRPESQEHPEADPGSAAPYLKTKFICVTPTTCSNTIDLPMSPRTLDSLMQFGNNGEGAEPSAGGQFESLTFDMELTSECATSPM

Regarding `C[C@H](NC(=O)/C(C#N)=C/c1cccc(Br)n1)c1ccccc1` [WP1066, (S,E)-3-(6-bromopyridin-2-yl)-2-cyano-N-(1-phenylethyl)acrylamide], the “duration of p-STAT3 inhibition in excised tumors after the final injection” value in series [1] (immunohistochemical analysis) was “at least 3 weeks”. For the same compound, the tumor growth entry in [1] (systemic intraperitoneal administration, 30-day follow-up) is listed as “significant inhibition of tumor growth”; in series [4], “statistically significant suppression of tumor growth”; in series [6], “marked growth suppression”. For the same compound, the “FoxP3 in natural Tregs” value in [2] is listed as “down-regulates FoxP3”. Moreover, in [3], the “FoxP3 induction in T cells” value is “inhibiting FoxP3 induction”. Moreover, in series [5] (C57BL/6J mice), the “induction of autoimmunity in CNS (Luxol fast blue staining)” value is given as “no evidence of induction of autoimmunity”. In addition, the local tolerability result in [5] (mouse, in vivo) is given as “localized inflammatory responses”. In series [5], the “histological examination of the systemic organs” value is recorded as “failed to reveal any major toxicities”. Also, the “in vivo efficacy in immune-incompetent background” value with melanoma tumors (B16) (established intracerebral tumors, immune-incompetent background) is recorded as “ablated”. Moreover, the animals surviving long-term in the series with melanoma tumors (B16) (oral gavage starting on day 3 after tumor implantation, vehicle control 0%) is listed as 80%. Besides, the “mean peak plasma concentration” value in series [7] (10 mg/kg) worked out at 1.05 µM; in series [7] (40 mg/kg), 4.31 µM. For the same compound, in [7] (mouse, po, 40 mg/kg), the “mean peak plasma concentration (oral bioavailability studies)” value is “greater than 2 μM”. Further, in series [8], the “immune-suppressive cytokines such as TGF-β” value is listed as “inhibits”. Further, the “production of pro-inflammatory cytokines (IL-2, IL-4, IL-12, IL-15) by systemic APCs” value in series [8] (immune-suppressed patients) is given as “induces”. In addition, the “co-stimulatory molecules (CD80, CD86) on microglia” value in [8] (microglia from the CNS of patients with cancer) is reported as “upregulates”.
As for Cucurbitacin Q, the “in vivo tumor growth” value in [9] is recorded as “suppressed in vivo growth of human lung cancer xenografts”.
Turning to “IL-6: cytokine, stimulus in HaCaT pSTAT3 test”, in series [10], the “STAT3 activation in keratinocytes” value was “potently induce STAT3 activation” and the “Relative level of pSAT3” value is recorded as “+++++ (+++++=400-500 fold)”.
`CC(C)(O)/C=C/C(=O)[C@](C)(O)[C@H]1[C@H](O)C[C@@]2(C)[C@@H]3CC=C4[C@@H](C=C(O)C(=O)C4(C)C)[C@]3(C)C(=O)C[C@]12C` [JSI-124, cucurbitacin I]: the “in vivo tumor growth” value in series [11] is “inhibit the in vivo growth of human breast carcinoma and syngeneic murine melanoma”. Further, the in vitro activity entry in series [12] was “in vitro activity against lymphoma and cervical cancer”. Further, the “histological examination of the systemic organs” value in series [5] is “failed to reveal any major toxicities”. The survival result in the series on intracerebral tumors is “prolonged survival”. Moreover, in series [13], the induced autoimmunity entry is given as “no evidence of induced autoimmunity”.
“EGF: growth factor, stimulus in HaCaT pSTAT3 test (NSDSECPLSHDGYCLHDGVCMYIEALDKYACNCVVGYIGERCQYRDLKWWELR; Epidermal growth factor; UniProt P01133 971-1023, looked up)”: in [10], the “Relative level of pSAT3” value is reported as “+ (+=less than 200 fold)”.
Consider `Cc1ccc(S(=O)(=O)OCC(=O)Nc2ccc(C(=O)O)c(O)c2)cc1` [Example S31-301], for which the growth and apoptosis result in series [14] is “inhibit growth and induce apoptosis preferentially”. Also, the “in vivo tumor growth” value in [15] is reported as “suppress the in vivo growth of human breast tumor xenografts”.
Take “bFGF: basic fibroblast growth factor, stimulus in HaCaT pSTAT3 test”: the “Relative level of pSAT3” value in [10] is on record as “+ (+=less than 200 fold)”.
Usually IC50 stands for the concentration at which inhibition is half-maximal. Take `N#C/C(=C\c1ccc(O)c(O)c1)C(=O)NCc1ccccc1` [AG490, (E)-N-benzyl-2-cyano-3-(3,4-dihydroxyphenyl)acrylamide]: the IC50 at STAT3 is over 50 µM.
